The source of these data is patent publication US4914245A, “Culpin” (E. R. Squibb & Sons, Inc., priority 1989, dated 1990).

Each structure is given as a SMILES string. ≈ marks a conversion by molar mass, not a printed value.

Format in all cases: cell-based
One test deals with Streptococcus agalactiae. The experiment in a line: agar dilution assay (MIC) vs Streptococcus agalactiae SC 9287. Conditions: Streptococcus agalactiae S.C. No. 9287; K-10 agar; 10^4 CFU; 37° C., 18 hours. As for the experimental part:
(§1) The following methodology was used to determine the minimum inhibitory concentration (hereinafter referred to as MIC) of the compounds of this invention against bacteria. The test organisms were grown in 20 ml of Antibiotic Assay Broth (Difco) by inoculating the broth (in tubes) with a loopful of the organism from a BHI (Difco) agar slant. The inoculated tubes were incubated at 37° C. for 18 to 24 hours. These cultures were assumed to contain 10^9 colony forming units (CFU) per ml. The cultures were diluted 1:100 to give a final inoculum level of 10^7 CFU; dilutions were made with Yeast Beef Broth (Difco). The test compounds were dissolved in an appropriate diluent at a concentration of 1,000 μg/ml. Two-fold dilutions were made in Yeast Beef Broth (Difco), resulting in a range from 1000 μg/ml to 0.5 μg/ml. A 1.5 ml portion of each dilution was placed into individual petri dishes to which 13.5 ml of K-10 agar was added. The composition of K-10 agar is The final drug concentration in the agar ranged from 100 μg/ml to 0.05 μg/ml. Organism growth control plates containing agar only were prepared and inoculated before and after the test plates. […] The plates were incubated at 37° C. for 18 hours and the MICs determined. […]

In another test the test system is Micrococcus luteus. Kind of test: agar dilution assay (MIC) vs Micrococcus luteus SC 2495. Conditions: Micrococcus luteus S.C. No. 2495; K-10 agar; 10^4 CFU; 37° C., 18 hours. As for the experimental part:
as §1
Background: Agar dilution tests growth on a series of plates holding different concentrations.

The subject of a further test is Escherichia coli. Kind of test: agar dilution assay (MIC) vs Escherichia coli SC 10909. Particulars: Escherichia coli S.C. No. 10909; K-10 agar; 10^4 CFU; 37° C., 18 hours. On the procedure:
as §1

The subject of another test is Mycobacterium fortuitum. The experiment in a line: agar dilution assay (MIC) vs Mycobacterium fortuitum SC 8571. Particulars: Mycolicibacterium fortuitum; Mycobacterium fortuitum S.C. No. 8571; K-10 agar; 10^4 CFU; 37° C., 18 hours. As for the experimental part: as §1
In test [1] the test system is Candida tropicalis. Kind of test: agar dilution assay (MIC) vs Candida tropicalis SC 2963. Conditions: Candida tropicalis S.C. No. 2963; F-4 agar; 10^3 CFU. On the procedure:
(§2) The following methodology was used to determine the minimum inhibitory concentration (hereinafter referred to as MIC) of the compounds of this invention against bacteria. The test organisms were grown in 20 ml of Antibiotic Assay Broth (Difco) by inoculating the broth (in tubes) with a loopful of the organism from a BHI (Difco) agar slant. The inoculated tubes were incubated at 37° C. for 18 to 24 hours. These cultures were assumed to contain 10^9 colony forming units (CFU) per ml. The cultures were diluted 1:100 to give a final inoculum level of 10^7 CFU; dilutions were made with Yeast Beef Broth (Difco). The test compounds were dissolved in an appropriate diluent at a concentration of 1,000 μg/ml. Two-fold dilutions were made in Yeast Beef Broth (Difco), resulting in a range from 1000 μg/ml to 0.5 μg/ml. A 1.5 ml portion of each dilution was placed into individual petri dishes to which 13.5 ml of K-10 agar was added. The composition of K-10 agar is
(§3) The final drug concentration in the agar ranged from 100 μg/ml to 0.05 μg/ml. Organism growth control plates containing agar only were prepared and inoculated before and after the test plates. […]
(§4) The plates were incubated at 37° C. for 18 hours and the MICs determined. […]

In test [2] the test system is Candida tropicalis. Kind of test: agar dilution assay (MIC) vs Candida tropicalis SC 9861. Conditions: Candida tropicalis S.C. No. 9861; F-4 agar; 10^3 CFU. As for the experimental part:
as §2, §3, §4

Broadly, the MIC is the smallest concentration in the dilution series that meets the test's criterion for growth inhibition. Lower therefore signals greater potency. With `C=C(C)C#Cc1cc(O)c(CC=C(C)C)cc1O` [culpin, 2-(3-methyl-2-butenyl)-5-(3-methyl-3-buten-1-ynyl)-1,4-benzenediol], the minimal inhibitory concentration (MIC) is 50 µg/mL (≈ 206 µM) in the test on Streptococcus agalactiae; 100 µg/mL (≈ 413 µM) against Micrococcus luteus; 100 µg/mL (≈ 413 µM) against Escherichia coli; 50 µg/mL (≈ 206 µM) with Mycobacterium fortuitum; 50 µg/mL (≈ 206 µM) in the test with Candida tropicalis [1]; 50 µg/mL (≈ 206 µM) with Candida tropicalis [2].
